Measurements published in patent US20090252814A1, “USE OF XENON FOR ORGAN PROTECTION” (priority 2005, published 2009).

System: kidney
Test: Ischaemic-reperfusion renal injury with xenon preconditioning
Assay type: in vivo, C57BL/6J mice
Method: Studies were performed on 8- to 12-wk-old C57BL/6J mice (Jackson Labs, Bar Harbor, Me.) that were fed a standard laboratory diet. All procedures were approved by the Home Office.
The groups of mice were treated as follows: • Naïve=no anaesthesia and no surgery of any kind was carried out on these mice; • Sham=anaesthesia and surgery was carried out on these mice but there was no clamping of the renal pedicle; • Control (or P20)=anaesthesia and surgery together with clamping of the renal pedicle was carried out on these mice but there was but no xenon preconditioning; • XPD group (or XePC24)=mice were exposed to 75% xenon for two hours (XPD=preconditioned with xenon). The xenon gas was administered to the mice by inhalation. Twenty-four hours after this preconditioning the mice then underwent anaesthesia and surgery together with clamping of the renal pedicle; and • Xe=mice were exposed to 75% xenon for two hours but no surgery together with clamping of the renal pedicle was carried out.
Renal injury, as described below, was carried out 24 hours after the mice were exposed to xenon. […]
Kidneys were removed from mice immediately after they were killed, cut in half, fixed in neutral-buffered formalin, and embedded in paraffin. Sections (5 μm thick) of formalin-fixed, paraffin-embedded tissue were mounted on glass slides and stained with haematoxylin-eosin for general histology and quantitative analysis. All tissues were evaluated without investigator knowledge of the group from which it originated.
For quantification of morphologic data, more than 10 low-magnification fields (×200) including both cortex and outer medulla were randomly selected. […] The total score for each kidney was calculated by addition of all 10 scores (maximum score 30). The histology score was assessed in a blinded manner in each group. […] mice were assessed for the control and XPD groups and four mice were assessed for each of the naïve and sham groups.
Mean±SEM are presented. The significant difference in mean values was evaluated by either a t test or by Dunnett paired t test for multiple comparisons. […]

[1] = XePC24 group compared to P20 group (no preconditioning)

`[Xe]` [xenon] was tested, and the “morphologic injury in the kidney” value (75% xenon 2 h, 24 h before 20 min ischaemia and 24 h reperfusion, histology score) was “decreased”, the “amount of creatinine in blood plasma” value [1] was “significantly decreases” and the “amount of urea nitrogen in blood plasma” value [1] was “significantly decreases”.
